Source: ChEMBL document CHEMBL4715719, “Synthesis and biological properties of polyamine modified flavonoids as hepatocellular carcinoma inhibitors” (Eur J Med Chem, 2016)
Calls of active or inactive are those of the source. The calls are words filed in the database; no cut-off is given here.

What was measured:
[1] = tested on: HepG2; experiment: Induction of apoptosis in human HepG2 cells after 48 hrs by AO/EB staining based assay; type: functional, cell-based; settings: dose 50-70 µM
[2] = tested on: Mus musculus; experiment: Upregulation of phosphorylated JNK in Kunming mouse implanted with mouse H22 cells assessed as activation of p53 measured after 48 hrs in presence of aspirin by immunofluorescence analysis; type: functional; settings: dose 10-30 µM
[3] = tested on: H22; experiment: Antimetastatic activity against mouse H22 cells implanted in Kunming mouse assessed as inhibition of metastasis at 10 mg/kg, iv administered for 7 consecutive days starting from day 11 post inoculation and measured after 18 days relative to control; type: functional; settings: 192 h, time 8 day
[4] = Toxicity in iv dosed Kunming mouse assessed as maximum tolerated dose; type: organism-based; settings: in vivo
[5] = tested on: HepG2; experiment: Antiproliferative activity against human HepG2 cells assessed as inhibition of cell proliferation at 100 uM measured after 48 hrs by MTT assay relative to control; type: functional
[6] = tested on: H22; experiment: Potentiation of DFMO-induced antitumor activity against mouse H22 cells implanted in Kunming mouse assessed as tumor growth inhibition at 10 mg/kg, iv administered for 7 consecutive days starting from day 8 post inoculation cotreated with DFMO at 200 mg/kg and measured after 16 days (reference value: 38.8 %); type: functional; settings: 192 h, time 8 day, read-out: TGI
[7] = tested on: SMMC-7721; experiment: Antiproliferative activity against human […] cells assessed as inhibition of cell proliferation at 30 uM measured after 48 hrs by MTT assay relative to control; type: functional
[8] = tested on: HepG2; experiment: Induction of apoptosis in human HepG2 cells assessed as activation of caspase 9 at 50 to 70 uM measured after 48 hrs by immunofluorescence assay; type: functional, cell-based; settings: dose 50-70 µM
[9] = tested on: H22; experiment: Antimetastatic activity against mouse H22 cells implanted in Kunming mouse assessed as number of metastatic focus at 10 mg/kg, iv administered for 7 consecutive days starting from day 11 post inoculation and measured after 18 days (reference value: 5.73 +/- 14.6); type: functional; settings: time 8 day
[10] = tested on: H22; experiment: Potentiation of DFMO-induced antitumor activity against mouse H22 cells implanted in Kunming mouse assessed as reduction in tumor weight at 10 mg/kg, iv administered for 7 consecutive days starting from day 8 post inoculation cotreated with DFMO at 200 mg/kg and measured after 16 days (reference value: 1.31 +/- 0.33 g); type: functional; settings: time 8 day
[11] = Cytotoxicity against human QSG7701 cells assessed as inhibition of cell proliferation at 100 uM measured after 48 hrs by MTT assay relative to control; type: cell-based
[12] = Toxicity in Kunming mouse implanted with mouse H22 cells assessed as change in body weight at 10 mg/kg, iv administered for 7 consecutive days starting from day 11 post inoculation cotreated with aspirin at 10 mg/kg and measured after 18 days (reference value: -1.2 %); type: organism-based; settings: in vivo, 192 h, time 8 day
[13] = tested on: Mus musculus; experiment: Upregulation of phosphorylated p38 in Kunming mouse implanted with mouse H22 cells assessed as activation of p53 measured after 48 hrs in presence of aspirin by immunofluorescence analysis; type: functional; settings: dose 10-30 µM
[14] = tested on: Mus musculus; experiment: Downregulation of Bcl-2 in Kunming mouse implanted with mouse H22 cells at 10 to 30 uM measured after 48 hrs by immunofluorescence analysis; type: functional; settings: dose 10-30 µM
[15] = tested on: H22; experiment: Potentiation of aspirin-induced antimetastatic activity against mouse H22 cells implanted in Kunming mouse assessed as number of metastatic focus at 10 mg/kg, iv administered for 7 consecutive days starting from day 11 post inoculation cotreated with aspirin at 10 mg/kg and measured after 18 days (reference value: 43.6 +/- 13); type: functional; settings: time 8 day
[16] = tested on: Mus musculus; experiment: Downregulation of Bcl-2 in Kunming mouse implanted with mouse H22 cells at 10 to 30 uM after 48 hrs in presence of aspirin by immunofluorescence analysis; type: functional; settings: dose 10-30 µM
[17] = Toxicity in Kunming mouse implanted with mouse H22 cells assessed as change in body weight at 10 mg/kg, iv administered for 7 consecutive days starting from day 11 post inoculation and measured after 18 days (reference value: 5.2 %); type: organism-based; settings: in vivo, 192 h, time 8 day
[18] = tested on: HepG2; experiment: Induction of apoptosis in human HepG2 cells assessed as activation of caspase 3 at 50 to 70 uM measured after 48 hrs by immunofluorescence assay; type: functional, cell-based; settings: dose 50-70 µM
[19] = tested on: HepG2; experiment: Induction of apoptosis in human HepG2 cells assessed as activation of caspase 8 at 50 to 70 uM measured after 48 hrs by immunofluorescence assay; type: functional, cell-based; settings: dose 50-70 µM
[20] = tested on: HepG2; experiment: Antiproliferative activity against human HepG2 cells assessed as inhibition of cell proliferation at 30 uM measured after 48 hrs by MTT assay relative to control; type: functional
[21] = tested on: HepG2; experiment: Antimigratory activity against human HepG2 cells assessed as inhibition of cell migration measured after 48 hrs by transwell assay; type: functional, cell-based; settings: dose 50-70 µM
[22] = Toxicity in Kunming mouse implanted with mouse H22 cells assessed mouse mortality at 10 mg/kg, iv administered for 7 consecutive days starting from day 8 post inoculation cotreated with DFMO at 200 mg/kg and measured after 16 days; type: organism-based; settings: in vivo, 192 h, time 8 day
[23] = tested on: H22; experiment: Antitumor activity against mouse H22 cells implanted in Kunming mouse assessed as tumor growth inhibition at 10 mg/kg, iv administered for 7 consecutive days starting from day 8 post inoculation and measured after 16 days relative to control; type: functional; settings: 192 h, time 8 day, read-out: TGI
[24] = tested on: H22; experiment: Potentiation of DFMO-induced antimetastatic activity against mouse H22 cells implanted in Kunming mouse assessed as number of metastatic focus at 10 mg/kg, iv administered for 7 consecutive days starting from day 11 post inoculation cotreated with DFMO at 200 mg/kg and measured after 18 days (reference value: 35.1 +/- 12); type: functional; settings: time 8 day
[25] = tested on: HepG2; experiment: Antiinvasive activity against human HepG2 cells assessed as inhibition of cell invasion at 50 to 70 uM measured after 48 hrs in presence of aspirin by wound healing assay; type: functional, cell-based; settings: dose 50-70 µM
[26] = tested on: HepG2; experiment: Antiinvasive activity against human HepG2 cells assessed as inhibition of cell invasion measured after 48 hrs by wound healing assay; type: functional, cell-based; settings: dose 50-70 µM
[27] = Cytotoxicity against human QSG7701 cells assessed as inhibition of cell proliferation at 30 uM measured after 48 hrs by MTT assay relative to control; type: cell-based
[28] = Antiproliferative activity against mouse H22 cells assessed as inhibition of cell proliferation measured after 48 hrs by MTT assay; type: functional, cell-based
[29] = Toxicity in Kunming mouse implanted with mouse H22 cells assessed as change in mouse body weight at 10 mg/kg, iv administered for 7 consecutive days starting from day 8 post inoculation and measured after 16 days (reference value: 21 %); type: organism-based; settings: in vivo, 192 h, time 8 day
[30] = tested on: H22; experiment: Potentiation of aspirin-induced antitumor activity against mouse H22 cells implanted in Kunming mouse assessed as tumor growth inhibition at 10 mg/kg, iv administered for 7 consecutive days starting from day 8 post inoculation cotreated with aspirin at 10 mg/kg and measured after 16 days (reference value: 36 %); type: functional; settings: 192 h, time 8 day, read-out: TGI
[31] = tested on: HepG2; experiment: Induction of apoptosis in human HepG2 cells assessed as upregulation of phosphorylated p38 at 50 to 70 uM measured after 48 hrs by immunofluorescence assay; type: functional, cell-based; settings: dose 50-70 µM
[32] = Toxicity in Kunming mouse implanted with mouse H22 cells assessed as mouse mortality during lug metastasis assay at 10 mg/kg, iv administered for 7 consecutive days starting from day 8 post inoculation and measured after 16 days; type: organism-based; settings: in vivo, 192 h, time 8 day
[33] = tested on: HepG2; experiment: Antiproliferative activity against human HepG2 cells assessed as inhibition of cell proliferation measured after 48 hrs by MTT assay; type: functional, cell-based; settings: HepG2, 48 h

For `Cl.Cl.NCCCNCC(=O)NCc1cccc2c(=O)cc(-c3cccc4ccccc34)oc12`, the Activity [1] was “Dose-dependent effect”, the Activity [2] was “Active” and the inhibition in vivo at 10 mg/kg [3] was 29.3%. For the same molecule, the MTD [4] was 20 mg/kg, the inhibition at 100 µM [5] was 84.2% and the inhibition in vivo at 10 mg/kg [6] was 43%. The inhibition at 30 µM [7] was 5.1%, the Activity [8] was “inactive” and the Activity [9] was 40.5. It also gave an Activity [10] of 1.22 g, an inhibition at 48 h, 100 µM [11] of 41.8% and an Activity [12] of 4.3%. The Activity [13] was “Active”, the Activity [14] was “Active” and the Activity [15] was 23. For the same molecule, the Activity [16] was “Active”, the Activity [17] was 3.7% and the Activity [18] was “Active”. For the same molecule, the Activity [19] was “inactive”, the inhibition at 30 µM [20] was 7.9% and the inhibition [21] was “Dose-dependent effect”. The Activity [22] was “Non-Toxic”, the inhibition in vivo at 10 mg/kg [23] was 39.2% and the Activity [24] was 29.3. The inhibition [25] was “Active”, the inhibition [26] was “Dose-dependent effect” and the inhibition at 48 h, 30 µM [27] was under 5%. The IC50 [28] was 32.1 µM, the Activity [29] was 4% and the inhibition in vivo at 10 mg/kg [30] was 69.2%. The Activity [31] was “Active”, the Activity [32] was “Non-Toxic” and the IC50 [33] was 65 µM.
